Assay results published in PubChem BioAssay AID248 (DTP/NCI, 2004).
Where “and” joins values, the source holds several entries; their conditions need not be identical. Identical values can stand only once. Toxic doses and inconclusive results are not listed. No stated cut-off is given here; in the data, active means T/C of 150% or more; inactive means T/C below 125%.

System: L1210 leukemia ip in BDF1 mice, survival T/C
Assay: NCI In Vivo Anticancer Drug Screen. Data for tumor model L1210 Leukemia (intraperitoneal) in B6D2F1 (BDF1) mice
Details: endpoint: mean survival time, higher = longer survival
Method in brief: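 Survival endpoint. Drug-treated group vs vehicle group, expressed as T divided by C. Tumor passaged by transplantation.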

[1] = dose: 100.0 mg/kg/injection, schedule: Q04DX003 (ip), vehicle: Klucel (hydroxypropylcellulose) (HPC)
[2] = dose: 200.0 mg/kg/injection, schedule: Q04DX003 (ip), vehicle: Klucel (hydroxypropylcellulose) (HPC)
[3] = dose: 400.0 mg/kg/injection, schedule: Q04DX003 (ip), vehicle: Klucel (hydroxypropylcellulose) (HPC)
[4] = dose: 50.0 mg/kg/injection, schedule: Q01DX009 (ip), vehicle: saline
[5] = dose: 100.0 mg/kg/injection, schedule: Q04DX003 (ip), vehicle: saline
[6] = dose: 200.0 mg/kg/injection, schedule: Q04DX003 (ip), vehicle: saline
[7] = dose: 400.0 mg/kg/injection, schedule: Q04DX003 (ip), vehicle: saline
[8] = dose: 100.0 mg/kg/injection, schedule: Q04DX002 (ip), vehicle: saline
[9] = dose: 50.0 mg/kg/injection, schedule: Q01DX009 (ip), vehicle: saline with Tween-80
[10] = dose: 100.0 mg/kg/injection, schedule: Q01DX009 (ip), vehicle: saline with Tween-80
[11] = dose: 200.0 mg/kg/injection, schedule: Q01DX009 (ip), vehicle: saline with Tween-80

Measured: T/C

C=COCCCCOC=C
inactive: [1] 113 % of control | [2] 105 % of control | [3] 105 % of control

CC(=O)Nc1ccc2c(O)cc(S(=O)(=O)O)cc2c1
inactive: [4] 95 % of control | dose: 100.0 mg/kg/injection, schedule: Q01DX009 (ip), vehicle: saline 99 % of control | [5] 101 % of control | dose: 200.0 mg/kg/injection, schedule: Q01DX009 (ip), vehicle: saline 100 % of control | [6] 104 % of control | [7] 98 % of control

Clc1nc2nnnn2c2ccccc12
inactive: dose: 20.0 mg/kg/injection, schedule: Q04DX003 (ip), vehicle: saline 101 % of control | dose: 40.0 mg/kg/injection, schedule: Q04DX003 (ip), vehicle: saline 101 % of control | dose: 80.0 mg/kg/injection, schedule: Q04DX003 (ip), vehicle: saline 104 % of control

CCCCCCC#CC(=O)OCC
inactive: [8] 89 % of control | dose: 200.0 mg/kg/injection, schedule: Q04DX002 (ip), vehicle: saline 104 % of control

CC1(C)C(=O)N(Cl)C(=O)N1Cl
inactive: dose: 3.12 mg/kg/injection, schedule: Q01DX009 (ip), vehicle: Klucel (hydroxypropylcellulose) (HPC) 90 % of control | dose: 3.13 mg/kg/injection, schedule: Q01DX001 (ip), vehicle: saline sonified 90 % of control | dose: 3.13 mg/kg/injection, schedule: Q01DX009 (ip), vehicle: saline 99 % of control | dose: 6.25 mg/kg/injection, schedule: Q01DX001 (ip), vehicle: saline sonified 97 % of control | dose: 6.25 mg/kg/injection, schedule: Q01DX009 (ip), vehicle: Klucel (hydroxypropylcellulose) (HPC) 90 % of control | dose: 6.25 mg/kg/injection, schedule: Q01DX009 (ip), vehicle: saline 95 % of control | dose: 12.5 mg/kg/injection, schedule: Q01DX001 (ip), vehicle: saline sonified 95 % of control | dose: 12.5 mg/kg/injection, schedule: Q01DX009 (ip), vehicle: saline 99 % of control | dose: 12.5 mg/kg/injection, schedule: Q04DX002 (ip), vehicle: Klucel (hydroxypropylcellulose) (HPC) 97 % of control | dose: 25.0 mg/kg/injection, schedule: Q01DX009 (ip), vehicle: Klucel (hydroxypropylcellulose) (HPC) 91 % of control | dose: 25.0 mg/kg/injection, schedule: Q04DX002 (ip), vehicle: Klucel (hydroxypropylcellulose) (HPC) 94 % of control

O=C(O)C12C3C4CC5C3C1C5C42 (configuration not stated)
inactive: dose: 100.0 mg/kg/injection, schedule: Q04DX003 (ip), vehicle: saline with Tween-80 98 % of control | dose: 200.0 mg/kg/injection, schedule: Q04DX003 (ip), vehicle: saline with Tween-80 106 % of control | dose: 400.0 mg/kg/injection, schedule: Q04DX003 (ip), vehicle: saline with Tween-80 97 % of control

COc1ccc(/C=N/NC(=O)CNC(=O)c2ccc(Cl)c(Cl)c2)cc1OC
inactive: [9] 91 % of control | [10] 91 % of control | [11] 102 % of control

OC1C(Cl)(Cl)CCCC1(Cl)Cl
inactive: [9] 90 % of control | [10] 94 % of control | [11] 98 % of control

O=C(O)CCCCCCCCCCNC(=O)Nc1cccc(C(F)(F)F)c1
inactive: dose: 100.0 mg/kg/injection, schedule: Q01DX001 (ip), vehicle: gum acacia 92 % of control and 96 % of control | dose: 100.0 mg/kg/injection, schedule: Q01DX009 (ip), vehicle: gum acacia 92 % of control | dose: 100.0 mg/kg/injection, schedule: Q04DX002 (ip), vehicle: gum acacia 93 % of control and 88 % of control | dose: 100.0 mg/kg/injection, schedule: Q04DX003 (ip), vehicle: gum acacia 93 % of control and 89 % of control and 90 % of control | dose: 200.0 mg/kg/injection, schedule: Q01DX001 (ip), vehicle: gum acacia 94 % of control and 89 % of control | dose: 200.0 mg/kg/injection, schedule: Q01DX009 (ip), vehicle: gum acacia 93 % of control | dose: 200.0 mg/kg/injection, schedule: Q04DX002 (ip), vehicle: gum acacia 92 % of control and 89 % of control | dose: 200.0 mg/kg/injection, schedule: Q04DX003 (ip), vehicle: gum acacia 93 % of control and 97 % of control and 88 % of control | dose: 400.0 mg/kg/injection, schedule: Q01DX001 (ip), vehicle: gum acacia 92 % of control and 96 % of control | dose: 400.0 mg/kg/injection, schedule: Q01DX009 (ip), vehicle: gum acacia 93 % of control | dose: 400.0 mg/kg/injection, schedule: Q04DX002 (ip), vehicle: gum acacia 86 % of control and 90 % of control | dose: 400.0 mg/kg/injection, schedule: Q04DX003 (ip), vehicle: gum acacia 94 % of control and 88 % of control

CC(C)(C)c1cc(C(C)(C)C)nc(C(C)(C)C)c1
inactive: dose: 100.0 mg/kg/injection, schedule: Q01DX001 (ip), vehicle: Klucel (hydroxypropylcellulose) (HPC) 98 % of control | dose: 200.0 mg/kg/injection, schedule: Q01DX001 (ip), vehicle: Klucel (hydroxypropylcellulose) (HPC) 98 % of control

NCCc1ccc(N)cc1
inactive: dose: 100.0 mg/kg/injection, schedule: Q01DX001 (ip), vehicle: saline 106 % of control and 92 % of control | [5] 95 % of control | dose: 200.0 mg/kg/injection, schedule: Q01DX001 (ip), vehicle: saline 106 % of control and 89 % of control | [6] 98 % of control | dose: 400.0 mg/kg/injection, schedule: Q01DX001 (ip), vehicle: saline 97 % of control and 92 % of control | [7] 101 % of control

CCc1c(Nc2ccccc2C)[nH]c(N)nc1=S
inactive: dose: 100.0 mg/kg/injection, schedule: Q01DX Z (ip), vehicle: methylcellulose (MC) 101 % of control | dose: 200.0 mg/kg/injection, schedule: Q01DX Z (ip), vehicle: methylcellulose (MC) 95 % of control

CN(C)c1ccc(S(=O)(=O)Cl)cc1[N+](=O)[O-]
inactive: [5] 104 % of control | [6] 107 % of control | [7] 101 % of control

O=[N+]([O-])c1ccc(C2=CSC3=NCCN23)cc1
inactive: dose: 5.0 mg/kg/injection, schedule: Q01DX001 (ip), vehicle: saline 97 % of control | dose: 10.0 mg/kg/injection, schedule: Q01DX001 (ip), vehicle: saline 95 % of control | dose: 20.0 mg/kg/injection, schedule: Q01DX001 (ip), vehicle: saline 95 % of control | dose: 25.0 mg/kg/injection, schedule: Q01DX009 (ip), vehicle: saline 110 % of control | dose: 40.0 mg/kg/injection, schedule: Q01DX001 (ip), vehicle: saline 97 % of control | [4] 95 % of control

CN1CCCN(C)C1c1ccc(Cl)cc1
inactive: dose: 6.25 mg/kg/injection, schedule: Q04DX003 (ip), vehicle: saline 99 % of control | dose: 12.5 mg/kg/injection, schedule: Q04DX003 (ip), vehicle: saline 99 % of control | dose: 25.0 mg/kg/injection, schedule: Q04DX003 (ip), vehicle: saline 91 % of control

c1ccc(CNCc2ccccn2)nc1
inactive: dose: 50.0 mg/kg/injection, schedule: Q04DX002 (ip), vehicle: saline 95 % of control | [8] 101 % of control

COc1ccc(NC(=O)Oc2ccc(Br)cc2Br)c(Cl)c1
inactive: dose: 50.0 mg/kg/injection, schedule: Q01DX009 (ip), vehicle: saline + alcohol 87 % of control | dose: 100.0 mg/kg/injection, schedule: Q01DX009 (ip), vehicle: saline + alcohol 87 % of control | dose: 200.0 mg/kg/injection, schedule: Q01DX009 (ip), vehicle: saline + alcohol 97 % of control

CCC1CCC(Cc2ccncc2)CC1 (configuration not stated)
inactive: [1] 98 % of control | [2] 92 % of control

Cn1c(=O)c2ccccc2c2ccccc21
inactive: dose: 100.0 mg/kg/injection, schedule: Q01DX009 (ip), vehicle: Klucel (hydroxypropylcellulose) (HPC) 99 % of control | [1] 100 % of control | dose: 200.0 mg/kg/injection, schedule: Q01DX009 (ip), vehicle: Klucel (hydroxypropylcellulose) (HPC) 97 % of control | [2] 100 % of control | dose: 400.0 mg/kg/injection, schedule: Q01DX009 (ip), vehicle: Klucel (hydroxypropylcellulose) (HPC) 100 % of control | [3] 105 % of control

O=C([O-])C1CCCCC1[I+]c1ccccc1 (configuration not stated)
inactive: [5] 100 % of control | [6] 98 % of control

C1CCC2C(C1)CCCC2CCC1CCCC2CCCCC21 (configuration not stated)
inactive: dose: 50.0 mg/kg/injection, schedule: Q04DX002 (ip), vehicle: saline with Tween-80 95 % of control | dose: 100.0 mg/kg/injection, schedule: Q04DX002 (ip), vehicle: saline with Tween-80 92 % of control | dose: 200.0 mg/kg/injection, schedule: Q04DX002 (ip), vehicle: saline with Tween-80 89 % of control | dose: 400.0 mg/kg/injection, schedule: Q04DX002 (ip), vehicle: saline with Tween-80 100 % of control
